Experimental data published in patent US6914045B2, “Glycopeptide antibiotics” (Wyeth Holdings Corporation, priority 2001, dated 2005).

Experiments:
Test in all cases: in vitro antibacterial evaluation, MIC by broth dilution
Assay type in all cases: cell-based
Enterococcus sp. = conditions: broth dilution, 18 hours at 35° C.
Method: (§1) Methods for in vitro Antibacterial Evaluation (Table 1)
(§2) The minimum inhibitory concentration (MIC), the lowest concentration of the antibiotic which inhibits growth of the test organism, is determined by the broth dilution method using Muller-Hinton II […] (Baltimore Biological Laboratories) following the recommendations of the National Committee for Clinical Laboratory Standards [Methods for dilution antimicrobial susceptibility tests for bacteria that grow aerobically, approved standard M7-A2, National Committee for Clinical Laboratory Standards, Villanova, Pa.].
(§3) An inoculum level of 5×10^5 CFU/mL, and a range of antibiotic concentrations (64-0.06 μg/mL) is used. […] The test organisms include a spectrum of Gram-positive bacteria comprised of Staphylococcus sp., Streptococcus sp. and Enterococcus sp. These organisms include recent clinical isolates that are resistant to methicillin, penicillin and/or vancomycin.

Staphylococcus sp. = test system: Staphylococcus sp.
Method: as §1, §2, §3

Streptococcus sp. = conditions: broth dilution, 18 hours at 35° C.
Method: as §1, §2, §3

Escherichia coli = conditions: 18 hours at 35° C.
[1] = broth dilution, 18 hours at 35° C.
[2] = strain ATCC 29213; broth dilution, 18 hours at 35° C.
[3] = strain GC 1131; broth dilution, 18 hours at 35° C.
[4] = strain GC 3051; broth dilution, 18 hours at 35° C.
[5] = strain GC 3053; broth dilution, 18 hours at 35° C.
[6] = strain GC 4541; broth dilution, 18 hours at 35° C.
[7] = strain GC 4542; broth dilution, 18 hours at 35° C.
[8] = strain GC 4544; broth dilution, 18 hours at 35° C.
[9] = strain GC 4545; broth dilution, 18 hours at 35° C.

CC(c1ccccc1)C1NC(=O)CNC(=O)C(CO)NC(=O)C(C(O)C2CNC(=N)N2C2OC(CO)C(O)C3OC(C)(C)OC32)NC(=O)C(C(O)C2CNC(=N)N2)NC(=O)C(Cc2ccc(OC3OC(CO)C(OC4OC(CO)C(O)C(O)C4O)C4OC(C)(C)OC34)cc2)NC1=O (stereo not shown) [Example 229]
128 µg/mL: MIC Enterococcus avium (GC 4558) (Enterococcus sp.) | MIC Enterococcus avium (GC 4558) (Enterococcus sp.; inoculum 5×10^5 CFU/mL, strain GC 4558)
>128 µg/mL: MIC Enterococcus faecalis (ATCC 29212) (Enterococcus sp.) | MIC Enterococcus faecalis (GC 2242) (Enterococcus sp.) | MIC Enterococcus faecalis (GC 2691) (Enterococcus sp.) | MIC Enterococcus faecalis (GC 3059) (Enterococcus sp.) | MIC Enterococcus faecalis (GC 4552) (Enterococcus sp.) | MIC Enterococcus faecalis (GC 4553) (Enterococcus sp.) | MIC Enterococcus faecalis (GC 4554) (Enterococcus sp.) | MIC Enterococcus faecalis (GC 6189) (Enterococcus sp.) | MIC Enterococcus faecium (GC 2243) (Enterococcus sp.) | MIC Enterococcus faecium (GC 4556) (Enterococcus sp.) | MIC Enterococcus faecium (GC 4557) (Enterococcus sp.) | MIC Enterococcus faecalis (ATCC 29212) (Enterococcus sp.; inoculum 5×10^5 CFU/mL, strain ATCC 29212) | MIC Enterococcus faecalis (GC 2242) (Enterococcus sp.; inoculum 5×10^5 CFU/mL, strain GC 2242) | MIC Enterococcus faecium (GC 2243) (Enterococcus sp.; inoculum 5×10^5 CFU/mL, strain GC 2243) | MIC Enterococcus faecalis (GC 2691) (Enterococcus sp.; inoculum 5×10^5 CFU/mL, strain GC 2691) | MIC Enterococcus faecalis (GC 3059) (Enterococcus sp.; inoculum 5×10^5 CFU/mL, strain GC 3059) | MIC Enterococcus faecalis (GC 4552) (Enterococcus sp.; inoculum 5×10^5 CFU/mL, strain GC 4552) | MIC Enterococcus faecalis (GC 4553) (Enterococcus sp.; inoculum 5×10^5 CFU/mL, strain GC 4553) | MIC Enterococcus faecalis (GC 4554) (Enterococcus sp.; inoculum 5×10^5 CFU/mL, strain GC 4554) | MIC Enterococcus faecium (GC 4556) (Enterococcus sp.; inoculum 5×10^5 CFU/mL, strain GC 4556) | MIC Enterococcus faecium (GC 4557) (Enterococcus sp.; inoculum 5×10^5 CFU/mL, strain GC 4557) | MIC Enterococcus faecalis (GC 6189) (Enterococcus sp.; inoculum 5×10^5 CFU/mL, strain GC 6189) | MIC Coagulase Negative Staphylococcus (GC 4547) (Staphylococcus sp.; [1]) | MIC Coagulase Negative Staphylococcus (GC 4548) (Staphylococcus sp.; [1]) | MIC Coagulase Negative Staphylococcus (GC 4549) (Staphylococcus sp.; [1]) | MIC Coagulase Negative Staphylococcus (GC 4551) (Staphylococcus sp.; [1]) | MIC Coagulase Negative Staphylococcus (GC 6257) (Staphylococcus sp.; [1]) | MIC Staphylococcus aureus-SMITH (GC 4543) (Staphylococcus sp.; [1]) | MIC Staphylococcus haemolyticus (GC 4546) (Staphylococcus sp.; [1]) | MIC Staphylococcus aureus-SMITH (GC 4543) (Staphylococcus sp.; broth dilution, 18 hours at 35° C.; strain GC 4543) | MIC Staphylococcus haemolyticus (GC 4546) (Staphylococcus sp.; broth dilution, 18 hours at 35° C.; strain GC 4546) | MIC Coagulase Negative Staphylococcus (GC 4547) (Staphylococcus sp.; broth dilution, 18 hours at 35° C.; strain GC 4547) | MIC Coagulase Negative Staphylococcus (GC 4548) (Staphylococcus sp.; broth dilution, 18 hours at 35° C.; strain GC 4548) | MIC Coagulase Negative Staphylococcus (GC 4549) (Staphylococcus sp.; broth dilution, 18 hours at 35° C.; strain GC 4549) | MIC Coagulase Negative Staphylococcus (GC 4551) (Staphylococcus sp.; broth dilution, 18 hours at 35° C.; strain GC 4551) | MIC Coagulase Negative Staphylococcus (GC 6257) (Staphylococcus sp.; broth dilution, 18 hours at 35° C.; strain GC 6257) | MIC Staphylococcus aureus (ATCC 29213) (Staphylococcus sp.; [2]) | MIC Staphylococcus aureus (GC 1131) (Staphylococcus sp.; [3]) | MIC Staphylococcus aureus (GC 3051) (Staphylococcus sp.; [4]) | MIC Staphylococcus aureus (GC 3053) (Staphylococcus sp.; [5]) | MIC Staphylococcus aureus (GC 4541) (Staphylococcus sp.; [6]) | MIC Staphylococcus aureus (GC 4542) (Staphylococcus sp.; [7]) | MIC Staphylococcus aureus (GC 4544) (Staphylococcus sp.; [8]) | MIC Staphylococcus aureus (GC 4545) (Staphylococcus sp.; [9]) | MIC Streptococcus agalactiae (GC 4564) (Streptococcus sp.) | MIC Streptococcus pneumoniae (ATCC 6301) (Streptococcus sp.) | MIC Streptococcus pneumoniae (GC 1894) (Streptococcus sp.) | MIC Streptococcus pneumoniae (GC 4565) (Streptococcus sp.) | MIC Streptococcus pyogenes (GC 4563) (Streptococcus sp.) | MIC Streptococcus pneumoniae (ATCC 6301) (Streptococcus sp.; inoculum 5×10^5 CFU/mL, strain ATCC 6301) | MIC Streptococcus pneumoniae (GC 1894) (Streptococcus sp.; inoculum 5×10^5 CFU/mL, strain GC 1894) | MIC Streptococcus pyogenes (GC 4563) (Streptococcus sp.; inoculum 5×10^5 CFU/mL, strain GC 4563) | MIC Streptococcus agalactiae (GC 4564) (Streptococcus sp.; inoculum 5×10^5 CFU/mL, strain GC 4564) | MIC Streptococcus pneumoniae (GC 4565) (Streptococcus sp.; inoculum 5×10^5 CFU/mL, strain GC 4565) | MIC Escherichia coli (ATCC 25922) (Escherichia coli) | MIC Escherichia coli (GC 4559) (Escherichia coli) | MIC Escherichia coli (GC 4560) (Escherichia coli)

CC(c1ccccc1)C1NC(=O)CNC(=O)C(CO)NC(=O)C(C(O)C2CNC(=N)N2C2OC(CO)C(O)C(O)C2O)NC(=O)C(C(O)C2CNC(=N)N2)NC(=O)C(Cc2ccc3oc(-c4cccc(F)c4)nc3c2)NC1=O (stereo not drawn) [Example 30, Cyclo[3-[2-(3-fluorophenyl)-1,3-benzoxazol-5-yl]alanyl-3-(2-iminoimidazolidin-4-yl)seryl-3-(3-hexopyranosyl-2-iminoimidazolidin-4-yl)serylserylglycyl-β-methylphenylalanyl]]
64 µg/mL: MIC Enterococcus faecalis (ATCC 29212) (Enterococcus sp.; strain ATCC 29212) | MIC Enterococcus faecalis (GC 3059) (Enterococcus sp.; strain GC 3059) | MIC Enterococcus faecalis (GC 4552) (Enterococcus sp.; strain GC 4552) | MIC Enterococcus faecalis (GC 4554) (Enterococcus sp.; strain GC 4554) | MIC Enterococcus faecium (GC 4556) (Enterococcus sp.; strain GC 4556)
16 µg/mL: MIC Enterococcus faecalis (GC 4553) (Enterococcus sp.; strain GC 4553) | MIC Enterococcus avium (GC 4558) (Enterococcus sp.; strain GC 4558) | MIC Staphylococcus aureus (GC 3051) (Staphylococcus sp.; [4]) | MIC Staphylococcus aureus (GC 3053) (Staphylococcus sp.; [5]) | MIC Staphylococcus aureus (GC 4541) (Staphylococcus sp.; [6]) | MIC Coagulase Negative Staphylococcus (GC 4549) (Staphylococcus sp.; strain GC 4549; broth dilution, 18 hours at 35° C.) | MIC Streptococcus pneumoniae (GC 1894) (Streptococcus sp.; strain GC 1894) | MIC Streptococcus pneumoniae (GC 4565) (Streptococcus sp.; strain GC 4565)
8 µg/mL: MIC Enterococcus faecium (GC 4557) (Enterococcus sp.; strain GC 4557) | MIC Staphylococcus aureus (ATCC 29213) (Staphylococcus sp.; [2]) | MIC Staphylococcus aureus (GC 1131) (Staphylococcus sp.; [3]) | MIC Staphylococcus aureus (GC 4542) (Staphylococcus sp.; [7]) | MIC Staphylococcus aureus-SMITH (GC 4543) (Staphylococcus sp.; strain GC 4543; broth dilution, 18 hours at 35° C.) | MIC Staphylococcus aureus (GC 4544) (Staphylococcus sp.; [8]) | MIC Staphylococcus aureus (GC 4545) (Staphylococcus sp.; [9]) | MIC Coagulase Negative Staphylococcus (GC 4547) (Staphylococcus sp.; strain GC 4547; broth dilution, 18 hours at 35° C.) | MIC Coagulase Negative Staphylococcus (GC 4551) (Staphylococcus sp.; strain GC 4551; broth dilution, 18 hours at 35° C.) | MIC Streptococcus pneumoniae (ATCC 6301) (Streptococcus sp.; strain ATCC 6301) | MIC Streptococcus agalactiae (GC 4564) (Streptococcus sp.; strain GC 4564) | MIC Escherichia coli (GC 4560) (Escherichia coli; strain GC 4560, broth dilution)
32 µg/mL: MIC Enterococcus faecalis (GC 2242) (Enterococcus sp.; strain GC 2242) | MIC Enterococcus faecium (GC 2243) (Enterococcus sp.; strain GC 2243) | MIC Enterococcus faecalis (GC 2691) (Enterococcus sp.; strain GC 2691) | MIC Enterococcus faecalis (GC 6189) (Enterococcus sp.; strain GC 6189) | MIC Escherichia coli (ATCC 25922) (Escherichia coli; strain ATCC 25922, broth dilution) | MIC Escherichia coli (GC 4559) (Escherichia coli; strain GC 4559, broth dilution)
4 µg/mL: MIC Staphylococcus haemolyticus (GC 4546) (Staphylococcus sp.; strain GC 4546; broth dilution, 18 hours at 35° C.) | MIC Coagulase Negative Staphylococcus (GC 4548) (Staphylococcus sp.; strain GC 4548; broth dilution, 18 hours at 35° C.) | MIC Coagulase Negative Staphylococcus (GC 6257) (Staphylococcus sp.; strain GC 6257; broth dilution, 18 hours at 35° C.) | MIC Streptococcus pyogenes (GC 4563) (Streptococcus sp.; strain GC 4563)
